Where “and” joins values, the source holds several entries; their conditions need not be identical. Equal values may be shown once. Toxic doses and inconclusive results are not listed. No stated cut-off is given here; in the data, active means T/C of 150% or more; inactive means T/C below 125%.
Test system: L1210 leukemia ip in BDF1 mice, survival T/C
Assay: NCI In Vivo Anticancer Drug Screen. Data for tumor model L1210 Leukemia (intraperitoneal) in B6D2F1 (BDF1) mice
Conditions: endpoint: mean survival time, higher = longer survival
How it was run: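 Ratio derived from survival: compound-dosed mice over vehicle-dosed mice, all bearing a transplantable tumor.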

[1] = dose: 100.0 mg/kg/injection, schedule: Q01DX009 (ip), vehicle: saline sonified
[2] = dose: 200.0 mg/kg/injection, schedule: Q01DX009 (ip), vehicle: saline sonified
[3] = dose: 100.0 mg/kg/injection, schedule: Q04DX003 (ip), vehicle: saline
[4] = dose: 200.0 mg/kg/injection, schedule: Q04DX003 (ip), vehicle: saline
[5] = dose: 100.0 mg/kg/injection, schedule: Q01DX001 (ip), vehicle: saline
[6] = dose: 200.0 mg/kg/injection, schedule: Q01DX001 (ip), vehicle: saline
[7] = dose: 25.0 mg/kg/injection, schedule: Q04DX003 (ip), vehicle: saline
[8] = dose: 50.0 mg/kg/injection, schedule: Q04DX003 (ip), vehicle: saline
[9] = dose: 100.0 mg/kg/injection, schedule: Q04DX002 (ip), vehicle: Klucel (hydroxypropylcellulose) (HPC)
[10] = dose: 100.0 mg/kg/injection, schedule: Q04DX002 (ip), vehicle: saline with Tween-80
[11] = dose: 200.0 mg/kg/injection, schedule: Q04DX002 (ip), vehicle: saline with Tween-80
[12] = dose: 100.0 mg/kg/injection, schedule: Q01DX009 (ip), vehicle: Klucel (hydroxypropylcellulose) (HPC)
[13] = dose: 200.0 mg/kg/injection, schedule: Q01DX009 (ip), vehicle: Klucel (hydroxypropylcellulose) (HPC)

Measured: T/C

Cc1nc2nccnc2[nH]1
inactive: [1] 100 % of control | dose: 100.0 mg/kg/injection, schedule: Q04DX003 (ip), vehicle: saline with Tween-80 96 % of control | [2] 92 % of control | dose: 200.0 mg/kg/injection, schedule: Q04DX003 (ip), vehicle: saline with Tween-80 96 % of control | dose: 400.0 mg/kg/injection, schedule: Q01DX009 (ip), vehicle: saline sonified 96 % of control | dose: 400.0 mg/kg/injection, schedule: Q04DX003 (ip), vehicle: saline with Tween-80 96 % of control

OC1C2CCN(CC2)C1CNC12CC3CC(CC(C3)C1)C2 (configuration not stated)
inactive: [3] 97 % of control | [4] 96 % of control

CC(=O)OCC1OC(n2cnc3c(N)ncnc32)C(OC(C)=O)C1OC(C)=O (configuration not stated)
inactive: dose: 50.0 mg/kg/injection, schedule: Q01DX001 (ip), vehicle: saline 100 % of control | [5] 110 % of control | dose: 100.0 mg/kg/injection, schedule: Q01DX005 (ip), vehicle: saline 93 % of control | [6] 94 % of control and 106 % of control | dose: 200.0 mg/kg/injection, schedule: Q01DX005 (ip), vehicle: saline 95 % of control | dose: 200.0 mg/kg/injection, schedule: Q01DX009 (ip), vehicle: saline 104 % of control | dose: 400.0 mg/kg/injection, schedule: Q01DX001 (ip), vehicle: saline 94 % of control | dose: 400.0 mg/kg/injection, schedule: Q01DX009 (ip), vehicle: saline 109 % of control

C[N+](C)(C)C1(Cc2ccc(Br)cc2)c2ccccc2-c2ccccc21
inactive: dose: 25.0 mg/kg/injection, schedule: Q04DX003 (ip), vehicle: saline with Tween-80 88 % of control

NC(=S)c1ccc(N)cc1
inactive: dose: 12.5 mg/kg/injection, schedule: Q04DX003 (ip), vehicle: saline 105 % of control | [7] 103 % of control | [8] 97 % of control and 102 % of control | dose: 75.0 mg/kg/injection, schedule: Q04DX003 (ip), vehicle: saline 106 % of control | dose: 115.0 mg/kg/injection, schedule: Q04DX003 (ip), vehicle: saline 97 % of control

Nc1nc2ncc(CNc3ccc(C(=O)NC(CCC(=O)O)C(=O)O)nc3)nc2c(=O)[nH]1 (configuration not stated)
inactive: dose: 0.75 mg/kg/injection, schedule: Q01DX009 (ip), vehicle: alkali diluted with saline 105 % of control | dose: 1.5 mg/kg/injection, schedule: Q01DX009 (ip), vehicle: alkali diluted with saline 102 % of control | dose: 3.0 mg/kg/injection, schedule: Q01DX009 (ip), vehicle: alkali diluted with saline 111 % of control | dose: 6.0 mg/kg/injection, schedule: Q01DX009 (ip), vehicle: alkali diluted with saline 102 % of control | dose: 12.0 mg/kg/injection, schedule: Q01DX009 (ip), vehicle: alkali diluted with saline 100 % of control | dose: 18.0 mg/kg/injection, schedule: Q01DX009 (ip), vehicle: alkali diluted with saline 112 % of control | dose: 24.0 mg/kg/injection, schedule: Q01DX009 (ip), vehicle: alkali diluted with saline 108 % of control | dose: 36.0 mg/kg/injection, schedule: Q01DX009 (ip), vehicle: alkali diluted with saline 108 % of control | dose: 48.0 mg/kg/injection, schedule: Q01DX009 (ip), vehicle: alkali diluted with saline 118 % of control | dose: 75.0 mg/kg/injection, schedule: Q01DX001 (ip), vehicle: alkali diluted with saline 111 % of control | dose: 150.0 mg/kg/injection, schedule: Q01DX001 (ip), vehicle: alkali diluted with saline 105 % of control

CN1NC(=O)CC1c1ccccc1 (configuration not stated)
inactive: [9] 93 % of control | dose: 200.0 mg/kg/injection, schedule: Q04DX002 (ip), vehicle: Klucel (hydroxypropylcellulose) (HPC) 97 % of control | dose: 400.0 mg/kg/injection, schedule: Q04DX002 (ip), vehicle: Klucel (hydroxypropylcellulose) (HPC) 100 % of control

COC1OC2COC(c3ccccc3)OC2C(OC)C1OC(=O)c1ccccc1 (configuration not stated)
inactive: [3] 93 % of control | [4] 91 % of control | dose: 400.0 mg/kg/injection, schedule: Q04DX003 (ip), vehicle: saline 98 % of control

Cc1cc(C)cc(OC(=O)Nc2ccccc2C)c1
inactive: [10] 106 % of control | [11] 91 % of control

O=C(Nc1ccccc1)N(C1CCCCC1)C1CCCCC1
inactive: [12] 86 % of control | [13] 88 % of control | dose: 400.0 mg/kg/injection, schedule: Q01DX009 (ip), vehicle: Klucel (hydroxypropylcellulose) (HPC) 89 % of control

NC(CSCC(N)=NCC1C2CC3CC(C2)CC1C3)=NCC1C2CC3CC(C2)CC1C3 (configuration not stated)
inactive: [9] 96 % of control

CCOc1ccc(-c2cc(=O)c3c(OC)c(OC)c(OC)c(OC)c3o2)cc1
inactive: dose: 100.0 mg/kg/injection, schedule: Q01DX001 (sc), vehicle: steriod suspending solution 111 % of control | dose: 200.0 mg/kg/injection, schedule: Q01DX001 (sc), vehicle: steriod suspending solution 96 % of control | dose: 400.0 mg/kg/injection, schedule: Q01DX001 (sc), vehicle: steriod suspending solution 96 % of control

O=C(CCCCl)N1CCCCC1
inactive: dose: 100.0 mg/kg/injection, schedule: Q04DX002 (ip), vehicle: saline 94 % of control | dose: 200.0 mg/kg/injection, schedule: Q04DX002 (ip), vehicle: saline 98 % of control | dose: 400.0 mg/kg/injection, schedule: Q04DX002 (ip), vehicle: saline 96 % of control

O=S(=O)(Cl)CCCBr
inactive: [1] 93 % of control | [2] 86 % of control

O=C(O)C(O)c1ccc([N+](=O)[O-])cc1 (configuration not stated)
inactive: dose: 75.0 mg/kg/injection, schedule: Q01DX001 (ip), vehicle: saline 92 % of control | [10] 95 % of control | dose: 150.0 mg/kg/injection, schedule: Q01DX001 (ip), vehicle: saline 94 % of control | [11] 103 % of control | dose: 300.0 mg/kg/injection, schedule: Q01DX001 (ip), vehicle: saline 90 % of control | dose: 400.0 mg/kg/injection, schedule: Q04DX002 (ip), vehicle: saline with Tween-80 100 % of control

Cc1ccc([N+](=O)[O-])cc1NC(=O)Nc1cccc2c(O)cccc12
inactive: [12] 86 % of control | [13] 100 % of control

Nc1nc(Nc2ccc(C3=NCCN3)cc2)nc(Nc2ccc(C3=NCCN3)cc2)n1
inactive: dose: 1.2 mg/kg/injection, schedule: Q01DX Z (ip), vehicle: methylcellulose (MC) 112 % of control | dose: 1.9 mg/kg/injection, schedule: Q01DX Z (ip), vehicle: methylcellulose (MC) 123 % of control | dose: 3.75 mg/kg/injection, schedule: Q01DX Z (ip), vehicle: methylcellulose (MC) 117 % of control | dose: 15.0 mg/kg/injection, schedule: Q01DX Z (ip), vehicle: methylcellulose (MC) 120 % of control | dose: 16.5 mg/kg/injection, schedule: Q01DX009 (ip), vehicle: saline 108 % of control | dose: 25.0 mg/kg/injection, schedule: Q01DX009 (ip), vehicle: saline 120 % of control and 122 % of control | [7] 112 % of control | dose: 37.5 mg/kg/injection, schedule: Q01DX009 (ip), vehicle: saline 114 % of control and 115 % of control | dose: 50.0 mg/kg/injection, schedule: Q01DX009 (ip), vehicle: saline 123 % of control | [8] 109 % of control | dose: 60.0 mg/kg/injection, schedule: Q01DX Z (oral), vehicle: carboxymethylcellulose (CMC) 100 % of control | [5] 117 % of control | [3] 91 % of control | dose: 120.0 mg/kg/injection, schedule: Q01DX Z (oral), vehicle: carboxymethylcellulose (CMC) 95 % of control

COC(=O)C1C(O)CC2CCC1[N+]2(C)C (configuration not stated)
inactive: [5] 96 % of control | [6] 100 % of control

Source: PubChem BioAssay AID248 (DTP/NCI, 2004)
